Pest or weed control, MIC and EC50 data for five compounds are collected here from patent publication US5300672A (priority 1992, dated 1994).

The subject of experiment [1] is Pseudoperonospora cubensis. As to the kind of experiment: whole plant or invertebrate. In kind it is in vivo. The conditions noted are these: Pseudoperonospora cubensis, in Cucumis sativus, 168 h; read-out: % Control CDM.
Experiment [2] concerns Erysiphe graminis (f. sp. tritici). The experiment can be described thus: whole plant or invertebrate. Conditions: Blumeria graminis; read-out: % Control WPM. In kind it is in vivo.
Experiment [3] has as its system Aureobasidium pullulans. The experiment can be described thus: Broth two-fold serial dilution MIC test (Table 3), A.p. It is filed as cell-based. Conditions: dilution series 500 to 4 ppm. The source says:
(§1) A minimum inhibitory concentration (MIC) value is obtained using a broth, two-fold serial dilution test performed as follows: A stock solution or dispersion of the test compound, typically at a concentration of 1%, is made in a 5:3:2 solvent solution of acetone, methanol, and water. A volume of the stock solution is dispensed into culture media to give an initial starting test concentration of 500 ppm compound.
(§2) When the test is ready to be done, each vessel in the dilution series, except the first vessel, contains an equal volume of compound free broth. The first vessel contains twice the volume of broth with the starting concentration of test compound. One half of the broth from the first vessel is transferred to the second vessel. After being mixed, one half the resulting volume is removed from the second vessel and transferred to the third vessel. The entire cycle is repeated sufficiently to give a series of concentrations amounting to 500, 250, 125, 63, 31, 16, 8, and 4 ppm, respectively.
(§3) Each vessel is then inoculated with a cell suspension of the appropriate test organism. Bacteria are grown in broth and fungi on agar slants for a time and at a temperature appropriate to the species being tested. At the end of the growth period, the broth is vortexed to disperse the cells. In the case of fungi, the spores are harvested by pipetting water onto the slant and dislodging the spores with a sterile loop. The cell/spore suspension is standardized by controlling incubation time, temperature, and the volume of the diluent. The suspension is then used to inoculate the vessels containing the broth compound. The vessels are then incubated at the appropriate temperature. After the incubation, the vessels are examined for growth/no growth. The minimum inhibitory concentration (MIC) is defined as the lowest concentration of compound that results in complete inhibition of growth of the test organism.
Aureobasidium pullulans (A.p)

Experiment [4] concerns Puccinia recondita (f. sp. tritici Races PKB and PLD). The experiment can be described thus: whole plant or invertebrate. Conditions: Puccinia recondita, 240 h; read-out: % Control WLR. It is filed as in vivo.
The next experiment relates to Phytophthora infestans. As to the kind of experiment: whole plant or invertebrate. In kind it is in vivo. Conditions: Phytophthora infestans, in Solanum lycopersicum, 96 h; for pest or weed control at 200 ppm: read-out: % Control TLB, application rate 200 ppm.
For experiment [5], the system named is Escherichia coli. The experiment can be described thus: Broth two-fold serial dilution MIC test (Table 3), E.c. In kind it is cell-based. Conditions: gram negative, dilution series 500 to 4 ppm.
Description: as §1, §2, §3
Escherichia coli (E.c), gram negative

Experiment [6] relates to Staphylococcus aureus. As to the kind of experiment: Broth two-fold serial dilution MIC test (Table 3), S.a. Conditions: gram positive, dilution series 500 to 4 ppm. It is filed as cell-based.
Description: as §1, §2, §3
Staphylococcus aureus (S.a), gram positive

The test system of experiment [7] is Pseudomonas aerugenosa. The experiment can be described thus: Broth two-fold serial dilution MIC test (Table 3), Ps.ae. It is filed as cell-based. Conditions: gram negative, dilution series 500 to 4 ppm.
Description: as §1, §2, §3
Pseudomonas aerugenosa (Ps.ae), gram negative

The test system of experiment [8] is Pseudomonas fluorescens. As to the kind of experiment: Broth two-fold serial dilution MIC test (Table 3), Ps.fl. In kind it is cell-based. The conditions noted are these: gram negative, dilution series 500 to 4 ppm.
Description: as §1, §2, §3
Pseudomonas fluorescens (Ps.fl), gram negative

Experiment [9] has as its system Puccinia graminis (f. sp. tritici Race 15B-2). The experiment can be described thus: whole plant or invertebrate. In kind it is in vivo. Conditions: Puccinia graminis, 336 h, read-out: % Control WSR.
In experiment [10] the test system is Aspergillus niger. The experiment can be described thus: Broth two-fold serial dilution MIC test (Table 3), A.n. In kind it is cell-based. The conditions noted are these: dilution series 500 to 4 ppm.
Description: as §1, §2, §3

Experiment [11] deals with Pellicularia filamentosa (f. sp. sasiki). As to the kind of experiment: whole plant or invertebrate. In kind it is in vivo. The conditions noted are these: 120 h; read-out: % Control RSB.
A further experiment has as its system Piricularia oryzae. As to the kind of experiment: whole plant or invertebrate. Conditions: Pyricularia oryzae; for pest or weed control at 100 ppm: read-out: % Control RB, application rate 100 ppm. It is filed as in vivo.
The subject of experiment [12] is Escherichia coli. As to the kind of experiment: Alternate Minimum Inhibitory Concentrations Test (Table 4), E.c. It is filed as cell-based. The conditions noted are these: Table 4 alternate test, 250 ppm to 0.8 ppm in TSB.
Experiment [13] deals with Pseudomonas aerugenosa. As to the kind of experiment: Alternate Minimum Inhibitory Concentrations Test (Table 4), Ps.ae. Conditions: Table 4 alternate test, 250 ppm to 0.8 ppm in TSB. In kind it is cell-based.
For experiment [14], the system named is Pseudomonas fluorescens. The experiment can be described thus: Alternate Minimum Inhibitory Concentrations Test (Table 4), Ps.fl. In kind it is cell-based. The conditions noted are these: Pseudomonas fluorescens; Table 4 alternate test; 250 ppm to 0.8 ppm in TSB, 72 hours, 30° C.; read-out: MIC Ps.fl. Summed up:
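MIC taken as lowest concentration showing no growth after 72 h incubation at 30 °C in TSB. Twofold dilution series spanned 250 down to 0.8 ppm, wells inoculated with phosphate-buffer-diluted 24 h culture.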

The test system of experiment [15] is Staphylococcus aureus. The experiment can be described thus: Alternate Minimum Inhibitory Concentrations Test (Table 4), S.a. It is filed as cell-based. The conditions noted are these: Table 4 alternate test, 250 ppm to 0.8 ppm in TSB.
Experiment [16] concerns Aureobasidium pullulans. The experiment can be described thus: Alternate Minimum Inhibitory Concentrations Test (Table 4), A.p. It is filed as cell-based. The conditions noted are these: Table 4 alternate test, 250 ppm to 0.8 ppm in TSB.
The test system of another experiment is Candida albicans. The experiment can be described thus: Alternate Minimum Inhibitory Concentrations Test (Table 4), C.alb. In kind it is cell-based. Conditions: Table 4 alternate test, 250 ppm to 0.8 ppm in TSB.
In experiment [17] the test system is Aspergillus niger. The experiment can be described thus: Alternate Minimum Inhibitory Concentrations Test (Table 4), A.n. It is filed as cell-based. The conditions noted are these: Table 4 alternate test, 250 ppm to 0.8 ppm in TSB.
The subject of the next experiment is Pythium ultimum. The experiment can be described thus: Pythium ultimum in vitro Fungitoxicity Assay in liquid culture. It is filed as cell-based, Pythium ultimum (ATCC 26083). The conditions noted are these: Globisporangium ultimum; mycelial dry weight, 48 h at 25° C., shaking at 60 rpm; read-out: EC 50. As for the experimental part:
Selected compounds of Examples 1-120 were subjected also to the following in vitro fungitoxicity assay against Pythium ultimum in a liquid culture, with the results as indicated in Table 6.
Pythium ultimum Fungitoxicity Assay
A dilution series of the test compound was prepared in dimethylsulfoxide, and 0.1 ml of each dilution was added to 19.9 ml of a liquid asparagine-sucrose medium (D. C. Erwin and K. Katznelson (1971), Can. J. Microbiol. 7, 15) in 9 cm diameter petri dishes to give the desired final concentrations of test compound. Plates were inoculated with mycelial plugs, 7 mm diameter, taken from the growing edge of 48 h old cultures of Pythium ultimum, (ATCC 26083), grown on potato dextrose agar. Two replicate plates were used for each treatment. The increase in mycelial dry weight was determined after growth for 48 h at 25° C. with shaking at 60 rpm. EC50 values were calculated from dose response curves.

Setting [18] is: read-out: % Control TLB, application rate 100 ppm.

In brackets after ≈: the same amount, converted by molar mass. Where two headings read alike, the source gives them in different places. Some results are limits rather than exact numbers.

What is called MIC is the smallest concentration in the dilution series that meets the test's criterion for growth inhibition.

With `CCCCCCCCNC(=O)/C=C\SC(=O)CCC1CCCC1` [Compound 11, N-octyl-cis-3-[(3-cyclopentanepropanoyl)thio]acrylamide], the pest or weed control at 50 ppm in experiment [1] amounted to 85%; in the experiment with Piricularia oryzae (read-out: % Control RB, application rate 50 ppm), 75%. Further, the pest or weed control at 100 ppm in [2] came out at 0%; in [4], 50%; in the experiment with Phytophthora infestans (read-out: % Control TLB), 90%; in experiment [11], 0%. In addition, the minimum inhibitory concentration (MIC) was less than 4 µg/mL in the experiment with Aureobasidium pullulans [3]; more than 500 µg/mL in the experiment with Escherichia coli [5]; more than 500 µg/mL with Staphylococcus aureus [6]; more than 500 µg/mL in the experiment with Pseudomonas aerugenosa [7]; more than 500 µg/mL against Pseudomonas fluorescens [8]; 250 µg/mL (≈ 736 µM) against Aspergillus niger [10]. Besides, the pest or weed control at 200 ppm in experiment [9] worked out at 90%.

In the case of `CCCCCCCCNC(=O)/C=C\SC(=O)CCCl` [Compound 24, N-octyl-cis-3-[(3-chloropropanoyl)thio]acrylamide], the pest or weed control at 100 ppm was 0% in [2]; 0% in [4]; 95% in the experiment with Phytophthora infestans (setting [18]); 0% in experiment [11]; 0% in the experiment on Piricularia oryzae. For the same compound, the MIC in the experiment on Escherichia coli [12] was more than 250 µg/mL; in the experiment on Pseudomonas aerugenosa [13], more than 250 µg/mL; with Pseudomonas fluorescens [14], more than 250 µg/mL; against Staphylococcus aureus [15], more than 250 µg/mL; in the experiment with Aureobasidium pullulans [16] it was less than 2 µg/mL; against Candida albicans, 12 µg/mL (≈ 39.2 µM). Moreover, the minimal inhibitory concentration (MIC) against Aspergillus niger [17] came out at 63 µg/mL (≈ 206 µM).

As for `CCCCCCCCNC(=O)/C=C\SC(=O)c1ccc(C)cc1C` [Compound 43, N-octyl-cis-3-[(2,4-dimethylbenzoyl)thio]acrylamide], the pest or weed control at 50 ppm in experiment [1] turned out to be 50%. Moreover, the pest or weed control at 100 ppm (in [2]; in [4]; in the experiment on Phytophthora infestans (setting [18]); with Piricularia oryzae) was 0% each time. In addition, the MIC in the experiment on Aureobasidium pullulans [3] was 16 µg/mL (≈ 46 µM); against Escherichia coli [5], more than 500 µg/mL; with Staphylococcus aureus [6], more than 500 µg/mL; in the experiment with Pseudomonas aerugenosa [7], more than 500 µg/mL; in the experiment with Pseudomonas fluorescens [8], more than 500 µg/mL; against Aspergillus niger [10], more than 500 µg/mL. Also, in the experiment with Pythium ultimum, the EC50 is 5.2 µg/mL (≈ 15 µM). Also, the pest or weed control at 200 ppm in experiment [9] came to 50%.

Take `CCCCCCCCNC(=O)/C=C\SC(=O)c1ccc([N+](=O)[O-])c(OC)c1` [Compound 105, N-octyl-cis-3-[(3-methoxy-4-nitrobenzoyl)thio]acrylamide]: the pest or weed control at 200 ppm is 90% in experiment [1], 0% in experiment [2], 0% in experiment [4] and 0% in the experiment with Phytophthora infestans. The MIC against Escherichia coli [12] was more than 250 µg/mL; against Pseudomonas aerugenosa [13] it was more than 250 µg/mL; with Pseudomonas fluorescens [14], not below 125 µg/mL; in the experiment with Staphylococcus aureus [15], more than 250 µg/mL; against Aureobasidium pullulans [16] it was less than 2 µg/mL; in the experiment on Candida albicans it was less than 2 µg/mL. In the experiment on Aspergillus niger [17], this compound yielded a minimum inhibitory concentration (MIC) of 24 µg/mL (≈ 60.8 µM).

On to `C#CCNC(=O)/C=C\SC(=O)c1ccccc1` [Compound 113, N-(2-propynyl)-cis-3-(benzoylthio)acrylamide], for which the pest or weed control at 200 ppm in [1] came out at 50%; in experiment [2] it was 0%; in the experiment with Phytophthora infestans, 0%; in the experiment with Piricularia oryzae (read-out: % Control RB, application rate 200 ppm), 0%. Also, the MIC is 31 µg/mL (≈ 126 µM) in the experiment with Escherichia coli [12]; 125 µg/mL (≈ 510 µM) in the experiment with Pseudomonas aerugenosa [13]; 63 µg/mL (≈ 257 µM) in the experiment on Pseudomonas fluorescens [14]; 63 µg/mL (≈ 257 µM) in the experiment with Staphylococcus aureus [15]; 31 µg/mL (≈ 126 µM) in the experiment with Aureobasidium pullulans [16]; not below 125 µg/mL with Candida albicans. The compound further returned a minimum inhibitory concentration (MIC) against Aspergillus niger [17] not below 250 µg/mL. The pest or weed control at 50 ppm in experiment [4] was determined as 25%. In the experiment with Pythium ultimum, the EC50 turned out to be 6.9 µg/mL (≈ 28.1 µM).
